Measured values: patent US10479795B2 (Incyte Corporation, priority 2016, dated 2019)
Structures can show the parent of a compound that is named as a salt.

Experiments:
[1] = target: PI3Kδ (p110δ/p85α) Recombinant Human Protein (Homo sapiens (Human), UniProt O00329); assay: PI3Kδ Scintillation Proximity Assay; type: biochemical
Text: Example C. PI3Kδ Scintillation Proximity Assay
[γ-^33P]ATP (10 mCi/mL) and Wheat Germ Agglutinin (WGA) YSi SPA Scintillation Beads was purchased from Perkin-Elmer (Waltham, Mass.). Lipid kinase substrate, D-myo-Phosphatidylinositol 4,5-bisphosphate (PtdIns(4,5)P2)D (+)-sn-1,2-di-O-octanoylglyceryl, 3-O-phospho linked (PIP2), CAS 204858-53-7, was purchased from Echelon Biosciences (Salt Lake City, Utah). PI3Kδ (p110δ/p85α) Recombinant Human Protein was purchased from Eurofins (St Charles, Mo.). ATP, MgCl2, DTT, EDTA, MOPS and CHAPS were purchased from Sigma-Aldrich (St. Louis, Mo.).
(§1) The kinase reaction was conducted in polystyrene 384-well Greiner Bio-one white plate from Thermo Fisher Scientific in a final volume of 25 μL. Inhibitors were first diluted serially in DMSO and added to the plate wells before the addition of other reaction components. The final concentration of DMSO in the assay was 2%. The PI3Kδ assay was carried out at room temperature in 20 mM MOPS, pH 6.7, 10 mM MgCl2, 5 mM DTT and CHAPS 0.03%. Reactions were initiated by the addition of ATP, the final reaction mixture consisted of 20 μM PIP2, 2 μM ATP, 0.5 μCi [γ-^33P] ATP, 3.4 nM PI3Kδ. Reactions were incubated for 120 min and terminated by the addition of 40 μL SPA beads suspended in quench buffer: 163 mM potassium phosphate pH 7.8, 20% glycerol, 25 mM EDTA. The final concentration of SPA beads is 1.0 mg/mL. After the plate sealing, plates were shaken overnight at room temperature and centrifuged at 1500 rpm for 10 min, the radioactivity of the product was determined by scintillation counting on Topcount (Perkin-Elmer). IC50 determination was performed by fitting the curve of percent of the solvent control activity versus the log of the inhibitor concentration using the GraphPad Prism 6.0 software.

[2] = target: PI3Kγ (p110γ) Recombinant Human Protein (Homo sapiens (Human), UniProt P48736); assay: PI3K-γ Scintillation Proximity Assay; type: biochemical; settings: read-out: PI3Kγ IC50
Chain of PI3Kγ (p110γ) Recombinant Human Protein (P48736 whole entry): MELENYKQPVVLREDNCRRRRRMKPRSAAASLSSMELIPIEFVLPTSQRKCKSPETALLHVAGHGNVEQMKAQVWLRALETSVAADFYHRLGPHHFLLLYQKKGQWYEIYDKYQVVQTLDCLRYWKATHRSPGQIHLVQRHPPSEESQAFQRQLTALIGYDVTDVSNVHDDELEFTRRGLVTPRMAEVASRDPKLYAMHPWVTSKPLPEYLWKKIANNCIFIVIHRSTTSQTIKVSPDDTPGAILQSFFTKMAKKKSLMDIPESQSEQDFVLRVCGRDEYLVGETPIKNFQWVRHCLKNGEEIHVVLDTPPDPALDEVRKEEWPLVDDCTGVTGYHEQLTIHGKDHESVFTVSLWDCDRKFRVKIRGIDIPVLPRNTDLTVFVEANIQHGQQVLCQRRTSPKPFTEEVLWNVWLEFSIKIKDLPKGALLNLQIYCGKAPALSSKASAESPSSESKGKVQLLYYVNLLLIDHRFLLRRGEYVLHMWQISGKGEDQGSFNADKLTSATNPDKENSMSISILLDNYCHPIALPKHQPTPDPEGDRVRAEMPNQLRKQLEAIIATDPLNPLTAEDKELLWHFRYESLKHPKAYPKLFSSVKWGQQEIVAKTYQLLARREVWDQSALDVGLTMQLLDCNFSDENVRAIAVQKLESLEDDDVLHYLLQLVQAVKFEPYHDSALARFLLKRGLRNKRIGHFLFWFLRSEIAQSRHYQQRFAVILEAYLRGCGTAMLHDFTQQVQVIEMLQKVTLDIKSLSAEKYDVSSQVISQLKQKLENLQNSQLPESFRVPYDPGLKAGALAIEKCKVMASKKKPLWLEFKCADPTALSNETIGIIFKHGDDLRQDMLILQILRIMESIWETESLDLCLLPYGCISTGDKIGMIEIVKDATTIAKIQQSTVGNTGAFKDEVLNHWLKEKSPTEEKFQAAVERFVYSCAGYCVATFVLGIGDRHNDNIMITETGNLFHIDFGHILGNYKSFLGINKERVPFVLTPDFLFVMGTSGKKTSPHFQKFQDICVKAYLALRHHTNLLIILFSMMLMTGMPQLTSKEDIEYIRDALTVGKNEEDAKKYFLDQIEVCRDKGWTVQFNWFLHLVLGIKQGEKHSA
Protocol: [γ-^33P]ATP (10 mCi/mL) and Wheat Germ Agglutinin (WGA) YSi SPA Scintillation Beads was purchased from Perkin-Elmer (Waltham, Mass.). […] PI3Kγ (p110γ) Recombinant Human Protein was purchased from Life technology (Grand Island, N.Y.). ATP, MgCl2, DTT, EDTA, MOPS and CHAPS were purchased from Sigma-Aldrich (St. Louis, Mo.).
as §1, with “PI3Kγ” for “PI3Kδ”, “ATP, 3.4 nM PI3Kδ. Reactions were incubated for 120 min and terminated by the addition of 40 μL SPA beads suspended in quench buffer: 163 mM potassium phosphate pH 7.8, 20% glycerol, 25 mM EDTA.” left out

Chain of PI3Kδ (p110δ/p85α) Recombinant Human Protein (O00329 whole entry): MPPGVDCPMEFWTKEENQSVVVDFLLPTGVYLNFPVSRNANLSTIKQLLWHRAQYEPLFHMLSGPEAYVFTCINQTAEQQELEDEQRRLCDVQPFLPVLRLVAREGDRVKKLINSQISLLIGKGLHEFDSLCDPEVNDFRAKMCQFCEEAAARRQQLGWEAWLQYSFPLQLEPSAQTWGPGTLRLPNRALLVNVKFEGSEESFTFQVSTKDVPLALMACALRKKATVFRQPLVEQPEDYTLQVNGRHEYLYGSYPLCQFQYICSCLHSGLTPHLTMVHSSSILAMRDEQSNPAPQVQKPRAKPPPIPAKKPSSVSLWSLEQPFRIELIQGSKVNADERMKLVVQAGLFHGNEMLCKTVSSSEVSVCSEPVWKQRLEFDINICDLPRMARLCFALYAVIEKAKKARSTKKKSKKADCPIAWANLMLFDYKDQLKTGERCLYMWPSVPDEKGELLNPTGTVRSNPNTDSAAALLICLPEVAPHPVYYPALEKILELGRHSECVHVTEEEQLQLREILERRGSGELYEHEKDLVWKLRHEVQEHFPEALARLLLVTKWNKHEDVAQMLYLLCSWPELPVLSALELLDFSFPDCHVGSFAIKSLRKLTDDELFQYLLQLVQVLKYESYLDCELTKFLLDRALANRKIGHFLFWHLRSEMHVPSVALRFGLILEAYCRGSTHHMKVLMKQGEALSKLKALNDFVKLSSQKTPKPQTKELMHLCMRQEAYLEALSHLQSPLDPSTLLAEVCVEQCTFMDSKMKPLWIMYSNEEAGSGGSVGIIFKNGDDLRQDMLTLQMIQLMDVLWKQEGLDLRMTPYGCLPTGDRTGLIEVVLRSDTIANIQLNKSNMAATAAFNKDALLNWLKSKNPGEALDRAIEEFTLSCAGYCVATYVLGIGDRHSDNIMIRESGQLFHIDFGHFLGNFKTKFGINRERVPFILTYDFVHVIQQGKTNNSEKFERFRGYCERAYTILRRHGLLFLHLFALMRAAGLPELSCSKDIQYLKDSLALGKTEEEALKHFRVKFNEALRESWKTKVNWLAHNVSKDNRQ
Chain of PI3Kδ (p110δ/p85α) Recombinant Human Protein (P27986 whole entry partner): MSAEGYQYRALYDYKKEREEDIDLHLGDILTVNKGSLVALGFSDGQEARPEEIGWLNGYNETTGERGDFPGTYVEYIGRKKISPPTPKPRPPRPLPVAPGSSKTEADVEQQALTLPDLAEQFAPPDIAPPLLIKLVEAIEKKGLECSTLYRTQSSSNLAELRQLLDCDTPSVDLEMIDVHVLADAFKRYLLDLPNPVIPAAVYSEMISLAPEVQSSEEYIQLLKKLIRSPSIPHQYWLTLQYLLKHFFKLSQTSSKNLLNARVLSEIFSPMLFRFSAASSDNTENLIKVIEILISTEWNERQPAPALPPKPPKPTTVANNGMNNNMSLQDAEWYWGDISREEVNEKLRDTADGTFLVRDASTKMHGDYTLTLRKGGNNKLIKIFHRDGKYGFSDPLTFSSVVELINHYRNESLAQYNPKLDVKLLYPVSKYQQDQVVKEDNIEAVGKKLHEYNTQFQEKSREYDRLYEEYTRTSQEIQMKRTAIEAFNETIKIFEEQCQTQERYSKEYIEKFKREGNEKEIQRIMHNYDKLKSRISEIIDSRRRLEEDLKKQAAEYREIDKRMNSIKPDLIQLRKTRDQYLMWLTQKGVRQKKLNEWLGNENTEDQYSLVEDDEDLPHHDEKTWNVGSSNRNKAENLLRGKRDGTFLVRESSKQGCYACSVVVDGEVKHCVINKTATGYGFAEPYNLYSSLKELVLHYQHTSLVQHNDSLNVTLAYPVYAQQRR

| IC50 [1] [nM] | IC50 [2] [nM] | SMILES |
| --- | --- | --- |
| > 2000 | 500 to 2000 | Cc1ccc(S(C)(=O)=O)cc1-c1cnc2c(N)nc(C(=O)NC3CCCN(CCO)C3)cn12 (racemic) [Example 460, 8-Amino-N-(1-(2-hydroxyethyl)piperidin-3-yl)-3-(2-methyl-5-(methylsulfonyl)phenyl)imidazo[1,2-a]pyrazine-6-carboxamide trifluoroacetate salt (racemic)] |
| 500 to 2000 | < 100 | Cc1ccc(S(=O)(=O)[C@@H]2CCC[C@H](O)C2)cc1-c1cnc2c(N)ncnn12 (relative stereo) [Example 501, cis-3-((3-(4-Aminoimidazo[2,1-f][1,2,4]triazin-7-yl)-4-methylphenyl)sulfonyl)cyclohexan-1-ol] |
| > 2000 | 100 to 500 | Cc1ccc(S(=O)(=O)NCC2(C)COC2)cc1-c1cnc2c(N)cccn12 [Example 3, 3-(8-Aminoimidazo[1,2-a]pyridin-3-yl)-4-methyl-N-[(3-methyloxetan-3-yl)methyl]benzenesulfonamide trifluoroacetate] |
| > 2000 | 500 to 2000 | CCS(=O)(=O)Nc1cc(-c2cnc3c(N)cc(Cl)cn23)c[nH]c1=O [Example 6, N-[5-(8-Amino-6-chloroimidazo[1,2-a]pyridin-3-yl)-2-oxo-1,2-dihydropyridin-3-yl]ethanesulfonamide trifluoroacetate] |
| > 2000 | 100 to 500 | Cc1ccc(S(=O)(=O)N2CCC(O)CC2)cc1-c1cnc2c(N)ncnn12 [Example 66, 1-{[3-(4-Aminoimidazo[2,1-f][1,2,4]triazin-7-yl)-4-methylphenyl]sulfonyl}piperidin-4-ol] |
| > 2000 | 100 to 500 | Cc1ccc(S(=O)(=O)NCC2CCOC2)cc1-c1cnc2c(N)ncnn12 (centres unmarked) [Example 67, 3-(4-Aminoimidazo[2,1-f][1,2,4]triazin-7-yl)-4-methyl-N-(tetrahydrofuran-3-ylmethyl)benzenesulfonamide] |
| 500 to 2000 | < 100 | Cc1ccc(S(=O)(=O)NC23CC(CO)(C2)C3)cc1-c1cnc2c(N)ncnn12 [Example 105, 3-(4-Aminoimidazo[1,2-f][1,2,4]triazin-7-yl)-N-(3-(hydroxymethyl)bicyclo[1,1,1]pentan-1-yl)-4-methylbenzenesulfonamide trifluoroacetate salt] |
| > 2000 | 100 to 500 | Cc1ccc(S(=O)(=O)N2CCC(O)C3(CC3)C2)cc1-c1cnc2c(N)ncnn12 (centres unmarked) [Example 119, 5-{[3-(4-aminoimidazo[2,1-f][1,2,4]triazin-7-yl)-4-methylphenyl]sulfonyl}-5-azaspiro[2.5]octan-8-ol] |
| 100 to 500 | < 100 | Cc1ccc(S(=O)(=O)N2CC(N3CCOCC3)C2)cc1-c1cnc2c(N)ncnn12 [Example 146, 7-(2-methyl-5-((3-morpholinoazetidin-1-yl)sulfonyl)phenyl)imidazo[2,1-f][1,2,4]triazin-4-amine, 2TFA] |
| 500 to 2000 | 100 to 500 | Cc1ccc(S(=O)(=O)N(C)C2CC2)cc1-c1cnc2c(N)ncnn12 [Example 148, 3-(4-aminoimidazo[2,1-f][1,2,4]triazin-7-yl)-N-cyclopropyl-N,4-dimethylbenzenesulfonamide] |
| 500 to 2000 | < 100 | Cc1ccc(S(=O)(=O)N2CC[C@@H](C#N)C2)cc1-c1cnc2c(N)ncnn12 [Example 150, (R)-1-((3-(4-aminoimidazo[2,1-f][1,2,4]triazin-7-yl)-4-methylphenyl)sulfonyl)pyrrolidine-3-carbonitrile] |
|  | < 100 | Cc1ccc(S(C)(=O)=O)cc1-c1cnc2c(N)nc(C3CCOCC3)cn12 [Example 536, 3-(2-Methyl-5-(methylsulfonyl)phenyl)-6-(tetrahydro-2H-pyran-4-yl)imidazo[1,2-a]pyrazin-8-amine trifluoroacetate] |
|  | < 100 | Cc1ccc(S(=O)(=O)Nc2ccc(C(=O)NCC(F)(F)F)nc2)cc1-c1cnc2c(N)ncnn12 [Example 539, 5-((3-(4-Aminoimidazo[2,1-f][1,2,4]triazin-7-yl)-4-methylphenyl)sulfonamido)-N-(2,2,2-trifluoroethyl)picolinamide trifluoroacetate] |

Further lines, the molecule ahead of its results:

| SMILES | IC50 [1] [nM] | IC50 [2] [nM] |
| --- | --- | --- |
| Cc1ccc(S(C)(=O)=O)cc1-c1cnc2c(N)nc(C(=O)NCC3CCC(C(F)(F)F)CC3)cn12 (mixture of isomers) [Example 456, 8-amino-3-(2-methyl-5-(methylsulfonyl)phenyl)-N-((4-(trifluoromethyl)cyclohexyl)methyl)imidazo[1,2-a]pyrazine-6-carboxamide trifluoroacetate salt (1:1 cis/trans isomers)] | 100 to 500 | 100 to 500 |
| CCOc1ncc(-c2cnc3c(N)cc(Cl)cn23)cc1NS(=O)(=O)CC [Example 7, N-[5-(8-Amino-6-chloroimidazo[1,2-a]pyridin-3-yl)-2-ethoxypyridin-3-yl]ethanesulfonamide bis(trifluoroacetate)] | 500 to 2000 | 100 to 500 |
| Cc1ccc(S(C)(=O)=O)cc1-c1cnc2c(N)nc(-c3ccccc3F)cn12 [Example 40, 6-(2-Fluorophenyl)-3-[2-methyl-5-(methylsulfonyl)phenyl]imidazo[1,2-a]pyrazin-8-amine trifluoroacetate] | 100 to 500 | < 100 |
| COc1ccc(-c2cnc3c(N)nccn23)cc1S(=O)(=O)N[C@H]1CC[C@H](O)CC1 [Example 43, 5-(8-Aminoimidazo[1,2-a]pyrazin-3-yl)-N-(trans-4-hydroxycyclohexyl)-2-methoxybenzenesulfonamide] | < 100 | 100 to 500 |
| Cc1cc(-c2cnc3c(N)nccn23)cc(S(=O)(=O)N[C@H]2CC[C@H](O)CC2)c1 [Example 44, 3-(8-Aminoimidazo[1,2-a]pyrazin-3-yl)-N-(trans-4-hydroxycyclohexyl)-5-methylbenzenesulfonamide] | > 2000 | 500 to 2000 |
| Nc1nccn2c(-c3ccc(F)c(S(=O)(=O)N[C@H]4CC[C@H](O)CC4)c3)cnc12 [Example 45, 5-(8-Aminoimidazo[1,2-a]pyrazin-3-yl)-2-fluoro-N-(trans-4-hydroxycyclohexyl)benzenesulfonamide] | 500 to 2000 | < 100 |
| Nc1nccn2c(-c3ccc(Cl)c(S(=O)(=O)N[C@H]4CC[C@H](O)CC4)c3)cnc12 [Example 46, 5-(8-Aminoimidazo[1,2-a]pyrazin-3-yl)-2-chloro-N-(trans-4-hydroxycyclohexyl)benzenesulfonamide] | 100 to 500 | < 100 |
| Cc1ccc(S(=O)(=O)N2C3CCC2CC(O)C3)cc1-c1cnc2c(N)ncnn12 (centres unmarked) [Example 120, 8-{[3-(4-aminoimidazo[2,1-f][1,2,4]triazin-7-yl)-4-methylphenyl]sulfonyl}-8-azabicyclo[3.2.1]octan-3-ol] | 100 to 500 | < 100 |
| Cc1ccc(S(=O)(=O)N2CCCCC23CC3)cc1-c1cnc2c(N)ncnn12 [Example 149, 7-(5-((4-azaspiro[2.5]octan-4-yl)sulfonyl)-2-methylphenyl)imidazo[2,1-f][1,2,4]triazin-4-amine] | 100 to 500 | < 100 |
| CC(=O)N1CCC(c2cn3c(-c4cc(S(C)(=O)=O)ccc4C)cnc3c(N)n2)CC1 [Example 537, 1-(4-(8-Amino-3-(2-methyl-5-(methylsulfonyl)phenyl)imidazo[1,2-a]pyrazin-6-yl)piperidin-1-yl)ethan-1-one trifluoroacetate] |  | < 100 |
| COC(=O)N1CCC(c2cn3c(-c4cc(S(C)(=O)=O)ccc4C)cnc3c(N)n2)C1 (centres unmarked) [Example 538, Methyl 3-(8-amino-3-(2-methyl-5-(methylsulfonyl)phenyl)imidazo[1,2-a]pyrazin-6-yl)pyrrolidine-1-carboxylate trifluoroacetate] |  | 100 to 500 |
